Activity calls are given as the source filed them. The rule behind the calls is not given here.
Columns and labels:
[1] = system: Botrytis cinerea; assay: Antifungal activity against Botryotinia fuckeliana T4 assessed as inhibition of spore germination after 5 days; assay type: functional, organism-based
[2] = system: Saccharomyces cerevisiae; assay: Antifungal activity against Saccharomyces cerevisiae FL100 ATCC 28383 assessed as reduction of doubling time at > 10 mM; assay type: functional, organism-based
[3] = system: Botrytis cinerea; assay: Antifungal activity against Botryotinia fuckeliana T4 assessed as inhibition of mycelial growth 2.4 mM at pH 7 after 5 days; assay type: functional
[4] = system: Saccharomyces cerevisiae; assay: Antifungal activity against Saccharomyces cerevisiae BW15 assessed as reduction of doubling time at 0.001 to 100 mM; assay type: functional, organism-based
[5] = system: Saccharomyces cerevisiae; assay: Antifungal activity against Saccharomyces cerevisiae 58W3D4 assessed as reduction of doubling time at 0.001 to 100 mM; assay type: functional, organism-based
[6] = system: Botrytis cinerea; assay: Antifungal activity against Botryotinia fuckeliana T4 assessed as inhibition of mycelial growth after 5 days; assay type: functional, organism-based
[7] = system: Botrytis cinerea; assay: Antifungal activity against Botryotinia fuckeliana T4 assessed as inhibition of mycelial growth 2.4 mM at pH 4 after 5 days; assay type: functional

CC(N)CC(=O)O (racemic)
inhibition [1]: Dose-dependent effect | Activity [2]: Active | inhibition (INH) [3]: 40% | Activity [4]: inactive | Activity [5]: inactive | inhibition [6]: Dose-dependent effect | inhibition (INH) [7]: 100%
